From patent US10457709B2, “Antimicrobial peptides, their variants and uses” (priority 2015, dated 2019)
Square brackets hold non-standard residues; d marks the D form. Peptide text beside a SMILES is read from it.

Legend:
[1] = tested on: Acinetobacter baumannii clinical strains; format: cell-based; conditions: clinical strains
Method: (§1) Minimum inhibition concentrations (MICs) were determined against Escherichia coli (ATCC 25922), Staphylococcus aureus (ATCC 25923), Klebsiella pneumoniae (ATCC 10031) and Pseudomonas aeruginosa (ATCC 27853). Also clinical strains of E. coli, K. pneumoniae, E. cloacae, P. aeruginosa, Serratia marcescens, Proteus mirabilis, S. pneumoniae, Acinetobacter baumannii, A. johnsonii and S. aureus were used for MICs assays. Additionally, clinical strains of yeast including Candida albicans, C. glabrata, C. parapsilosis and C. quillermondiae were used. The susceptibility of these microorganisms to Chain peptides were determined using micro broth dilution assay. Colonies of the respective microorganism from Muller Hinton (MH) agar plates incubated overnight were suspended in MH broth media and final concentration of microorganism was adjusted to 5.0×10^5 cfu/ml. An aliquot of 10 μl of each Chain peptide, or gentamicin, tetracycline as reference antibiotics were added in differing concentrations along with 90 μl of bacterial suspension to 96 well polypropylene plates and incubated at 37° C. for 20 to 24 hours. Concentrations of Chain peptides and reference antibiotics ranged from 0.125 to 128 μg/ml and the MICs were recorded as the lowest concentration with no visual growth of bacteria. Similarly, antifungal MICs were tested in Potato dextrose broth.
(§2) Clinical strains of yeasts including Candida albicans, C. glabrata, C. parapsilosis and C. quillermondiae were also tested with the 12 Chain peptides. The minimum inhibitory concentration (MICs) varied between these peptides and are presented in Tables 4a, 4b, 4c and 5a, 5b, 5c. Peptides Chain 105, 201 and 308 are broad spectrum antimicrobials with MICs between 0.5-32 μg/ml against all the bacteria and yeasts tested, except Serratia marcescens and Proteus mirabilis, against which the MICs were between 64-128 μg/ml. Peptide Chain 306 has narrow spectrum activity against E. coli at 1 μg/ml and for the rest of the bacterial strains at >32 μg/ml (FIG. 10c).

[2] = tested on: Enterobacter cloacae clinical strains; format: cell-based; conditions: clinical strains
Method: as §1, §2

[3] = tested on: Proteus mirabilis clinical strains; format: cell-based; conditions: clinical strains
Method: as §1, §2

[4] = tested on: Serratia marcescens clinical strains; format: cell-based; conditions: clinical strains
Method: as §1, §2

[5] = tested on: Staphylococcus aureus clinical strains; format: cell-based; conditions: clinical strains
Method: as §1, §2

[6] = tested on: Streptococcus pneumoniae clinical strains; format: cell-based; conditions: clinical strains
Method: as §1, §2

[7] = tested on: Candida albicans clinical strains; assay: MIC, clinical yeast strains; format: cell-based; parameters: unit: μg/ml
Method: as §1, §2

[8] = tested on: C. glabrata clinical strains; assay: MIC, clinical yeast strains; format: cell-based, Candida glabrata; parameters: unit: µg/ml
Method: as §1, §2

[9] = tested on: C. parapsilosis clinical strains; assay: MIC, clinical yeast strains; format: cell-based, Candida parapsilosis; parameters: unit: µg/ml
Method: as §1, §2

[10] = tested on: C. quillermondiae clinical strains; assay: MIC, clinical yeast strains; format: cell-based, Candida quillermondiae; parameters: unit: μg/ml; conditions: C. quillermondiae clinical yeast strain 1
Method: as §1, §2

[11] = tested on: Acinetobacter johnsonii clinical strains; format: cell-based; conditions: clinical strain 1; D-form peptides; MH broth-cation adjusted, 0.02% BSA, 0.2% acetic acid
Method: as §1, §2

[12] = tested on: Escherichia coli clinical strains; format: cell-based; conditions: clinical strains
Method: as §1, §2

[13] = tested on: Klebsiella pneumoniae clinical strains; format: cell-based; conditions: clinical strains
Method: as §1, §2

[14] = tested on: Pseudomonas aeruginosa clinical strains; format: cell-based; conditions: clinical strains
Method: as §1, §2

[15] = tested on: all the bacteria and yeasts tested; format: cell-based
Method: as §1, §2

[16] = Candida albicans clinical yeast strain 1
[17] = Candida albicans clinical yeast strain 2
[18] = Candida albicans clinical yeast strain 3
[19] = Candida albicans clinical yeast strain 4
[20] = Candida albicans clinical yeast strain 5
[21] = C. glabrata clinical yeast strain 1
[22] = C. glabrata clinical yeast strain 2
[23] = C. glabrata clinical yeast strain 3
[24] = C. glabrata clinical yeast strain 4
[25] = C. parapsilosis clinical yeast strain 1
[26] = C. parapsilosis clinical yeast strain 2
[27] = C. parapsilosis clinical yeast strain 3
[28] = C. parapsilosis clinical yeast strain 4

CC[C@@H](C)[C@@H](NC(=O)[C@@H](CCSC)NC(=O)[C@@H](C)NC(=O)[C@@H](CCCNC(=N)N)NC(=O)[C@@H](Cc1c[nH]c2ccccc12)NC(=O)[C@@H](CCCCN)NC(=O)[C@H](N)CCCNC(=N)N)C(=O)N[C@H](CCCNC(=N)N)C(=O)N[C@H](CC(C)C)C(=O)N[C@H](Cc1c[nH]cn1)C(=O)N[C@H](C)C(=O)N[C@H](CCCCN)C(=O)N[C@H](CCCNC(=N)N)C(=O)N[C@H](CC(C)C)C(=O)N[C@H](CCCNC(=N)N)C(=O)N[C@H](CCCCN)C(=O)O [Chain104D] (H-[dR][dK][dW][dR][dA][dM][dI][dR][dL][dH][dA][dK][dR][dL][dR][dK]-OH)
8: Minimum inhibitory concentration [7, 16] | Minimum inhibitory concentration [7, 17] | Minimum inhibitory concentration [7, 18] | Minimum inhibitory concentration [7, 19] | Minimum inhibitory concentration [7, 20] | Minimum inhibitory concentration [8, 21] | Minimum inhibitory concentration [8, 22] | Minimum inhibitory concentration [8, 23]
2: Minimum inhibitory concentration [9, 28]
4: Minimum inhibitory concentration [9, 25] | Minimum inhibitory concentration [9, 26] | Minimum inhibitory concentration [9, 27] | Minimum inhibitory concentration [10]
32 µg/mL: MIC, Proteus mirabilis strain 2 [3]
>128 µg/mL: MIC, Proteus mirabilis strain 1 [3] | MIC, Proteus mirabilis strain 4 [3] | MIC, Proteus mirabilis strain 5 [3] | MIC, Serratia marcescens strain 1 [4] | MIC, Serratia marcescens strain 2 [4] | MIC, Serratia marcescens strain 3 [4] | MIC, Serratia marcescens strain 4 [4]
4 µg/mL: MIC, Acinetobacter baumannii strain 4 [1] | MIC, Enterobacter cloacae strain 1 [2] | MIC, Enterobacter cloacae strain 2 [2] | MIC, Enterobacter cloacae strain 4 [2] | MIC, Staphylococcus aureus strain 1 [5] | MIC, Staphylococcus aureus strain 3 [5] | MIC, Staphylococcus aureus strain 5 [5] | MIC, Streptococcus pneumoniae strain 1 [6] | MIC, Streptococcus pneumoniae strain 4 [6] | MIC, Escherichia coli strain 1 [12] | MIC, Escherichia coli strain 2 [12] | MIC, Escherichia coli strain 3 [12] | MIC, Escherichia coli strain 4 [12] | MIC, Escherichia coli strain 5 [12] | MIC, Klebsiella pneumoniae strain 2 [13] | MIC, Klebsiella pneumoniae strain 5 [13] | MIC, Pseudomonas aeruginosa strain 1 [14] | MIC, Pseudomonas aeruginosa strain 3 [14]
16 µg/mL: MIC, Acinetobacter baumannii strain 1 [1] | MIC, Klebsiella pneumoniae strain 4 [13]
16: Minimum inhibitory concentration [8, 24]
2 µg/mL: MIC, Enterobacter cloacae strain 5 [2] | MIC, Staphylococcus aureus strain 2 [5] | MIC, Staphylococcus aureus strain 4 [5] | MIC, Streptococcus pneumoniae strain 2 [6] | MIC, Pseudomonas aeruginosa strain 2 [14] | MIC, Pseudomonas aeruginosa strain 4 [14]
8 µg/mL: MIC, Acinetobacter baumannii strain 2 [1] | MIC, Acinetobacter baumannii strain 3 [1] | MIC, Acinetobacter baumannii strain 5 [1] | MIC, Enterobacter cloacae strain 3 [2] | MIC, Acinetobacter johnsonii strain 1 [11] | MIC, Klebsiella pneumoniae strain 1 [13] | MIC, Klebsiella pneumoniae strain 3 [13]
128 µg/mL: MIC, Proteus mirabilis strain 3 [3] | MIC, Serratia marcescens strain 5 [4]
1 µg/mL: MIC, Streptococcus pneumoniae strain 3 [6] | MIC, Streptococcus pneumoniae strain 5 [6] | MIC, Pseudomonas aeruginosa strain 5 [14]

CC[C@@H](C)[C@@H](NC(=O)[C@@H](CCSC)NC(=O)[C@@H](C)NC(=O)[C@@H](CCCNC(=N)N)NC(=O)[C@@H](Cc1c[nH]c2ccccc12)NC(=O)[C@@H](CCCCN)NC(=O)[C@H](N)CCCNC(=N)N)C(=O)N[C@H](CCCNC(=N)N)C(=O)N[C@H](CC(C)C)C(=O)N[C@H](Cc1c[nH]cn1)C(=O)N[C@H](C)C(=O)N[C@H](CCCCN)C(=O)N[C@H](Cc1c[nH]c2ccccc12)C(=O)N[C@H](CC(C)C)C(=O)N[C@H](CCCNC(=N)N)C(=O)N[C@H](CCCCN)C(=O)O [Chain105D] (H-[dR][dK][dW][dR][dA][dM][dI][dR][dL][dH][dA][dK][dW][dL][dR][dK]-OH)
1 µg/mL: MIC, Enterobacter cloacae strain 5 [2] | MIC, Escherichia coli strain 1 [12] | MIC, Escherichia coli strain 3 [12] | MIC, Escherichia coli strain 4 [12]
32: Minimum inhibitory concentration [7, 16] | Minimum inhibitory concentration [7, 18] | Minimum inhibitory concentration [7, 19] | Minimum inhibitory concentration [7, 20] | Minimum inhibitory concentration [8, 24]
>128 µg/mL: MIC, Proteus mirabilis strain 1 [3] | MIC, Proteus mirabilis strain 4 [3] | MIC, Proteus mirabilis strain 5 [3]
0.5 to 32 µg/mL: MICs against all the bacteria and yeasts tested [15]
4 µg/mL: MIC, Acinetobacter baumannii strain 1 [1] | MIC, Acinetobacter baumannii strain 2 [1] | MIC, Acinetobacter baumannii strain 3 [1] | MIC, Acinetobacter baumannii strain 5 [1] | MIC, Streptococcus pneumoniae strain 1 [6] | MIC, Streptococcus pneumoniae strain 4 [6] | MIC, Acinetobacter johnsonii strain 1 [11] | MIC, Escherichia coli strain 2 [12] | MIC, Klebsiella pneumoniae strain 1 [13] | MIC, Klebsiella pneumoniae strain 3 [13] | MIC, Klebsiella pneumoniae strain 4 [13] | MIC, Pseudomonas aeruginosa strain 1 [14] | MIC, Pseudomonas aeruginosa strain 2 [14] | MIC, Pseudomonas aeruginosa strain 3 [14] | MIC, Pseudomonas aeruginosa strain 4 [14] | MIC, Pseudomonas aeruginosa strain 5 [14]
64 to 128 µg/mL: MICs against Proteus mirabilis [3] | MICs against Serratia marcescens [4]
64 µg/mL: MIC, Proteus mirabilis strain 3 [3]
128 µg/mL: MIC, Serratia marcescens strain 1 [4] | MIC, Serratia marcescens strain 2 [4] | MIC, Serratia marcescens strain 3 [4] | MIC, Serratia marcescens strain 4 [4] | MIC, Serratia marcescens strain 5 [4]
32 µg/mL: MIC, Proteus mirabilis strain 2 [3]
8: Minimum inhibitory concentration [8, 23] | Minimum inhibitory concentration [9, 25] | Minimum inhibitory concentration [9, 26] | Minimum inhibitory concentration [9, 27] | Minimum inhibitory concentration [10]
2 µg/mL: MIC, Acinetobacter baumannii strain 4 [1] | MIC, Enterobacter cloacae strain 1 [2] | MIC, Enterobacter cloacae strain 2 [2] | MIC, Enterobacter cloacae strain 3 [2] | MIC, Enterobacter cloacae strain 4 [2] | MIC, Staphylococcus aureus strain 1 [5] | MIC, Staphylococcus aureus strain 2 [5] | MIC, Staphylococcus aureus strain 3 [5] | MIC, Staphylococcus aureus strain 4 [5] | MIC, Staphylococcus aureus strain 5 [5] | MIC, Streptococcus pneumoniae strain 2 [6] | MIC, Streptococcus pneumoniae strain 3 [6] | MIC, Streptococcus pneumoniae strain 5 [6] | MIC, Escherichia coli strain 5 [12] | MIC, Klebsiella pneumoniae strain 2 [13] | MIC, Klebsiella pneumoniae strain 5 [13]
16: Minimum inhibitory concentration [7, 17] | Minimum inhibitory concentration [8, 21] | Minimum inhibitory concentration [8, 22]
4: Minimum inhibitory concentration [9, 28]
